Experimental data published in patent US20060128792A1, “Deguelin as a chemopreventive agent for lung cancer” (priority 2002, published 2006).
“And” between values parts separate entries of the source, which are not always exact repeats. Identical values can stand only once.

Tests used:
Test in all cases: MTT assay, growth inhibition by deguelin or deguelin derivatives
Type in all cases: cell-based
Settings in all cases: 3 days
H1299 = test system: H1299
H596 = test system: H596
H460 = test system: H460
H358 = test system: H358
A549 = test system: A549
H322 = test system: H322

## COc1cc2c(cc1OC)-c1c(oc3c4c(ccc3c1=O)OC(C)(C)C=C4)CO2 [7a,13a-dehydrodeguelin]
H1299; H1299, 0.01 μM
  % control: 0.93%
  MTT assay reading, Average: 1.3179
  MTT assay reading, individual replicate: 1.311 and 1.344 and 1.402 and 1.302 and 1.286 and 1.293 and 1.287
H1299; H1299, 0.1 μM
  % control: 0.87%
  MTT assay reading, Average: 1.2374
  MTT assay reading, individual replicate: 1.228 and 1.331 and 1.318 and 1.141 and 1.196 and 1.153 and 1.295
H1299; H1299, 0.5 μM
  % control: 0.69%
  MTT assay reading, Average: 0.9707
  MTT assay reading, individual replicate: 1.033 and 1.017 and 1.106 and 0.913 and 0.874 and 0.947 and 0.905
H1299; H1299, 1 μM
  % control: 0.60%
  MTT assay reading, Average: 0.8452
  MTT assay reading, individual replicate: 0.769 and 0.838 and 0.938 and 0.813 and 0.837 and 0.876
H596; H596, 0.01 μM
  MTT assay reading, Average: 1.4338
  MTT assay reading, individual replicate: 1.408 and 1.317 and 1.526 and 1.458 and 1.495 and 1.399
H596; H596, 0.1 μM
  MTT assay reading, Average: 1.2779
  MTT assay reading, individual replicate: 1.356 and 1.281 and 1.153 and 1.273 and 1.246 and 1.358 and 1.278
H596; H596, 0.5 μM
  MTT assay reading, Average: 1.2116
  MTT assay reading, individual replicate: 1.19 and 1.194 and 1.071 and 1.133 and 1.285 and 1.365 and 1.243
H596; H596, 1 μM
  MTT assay reading, Average: 1.0616
  MTT assay reading, individual replicate: 1.202 and 1.183 and 1.019 and 1.159 and 1.07 and 0.899 (2×)
H460; H460, 0.01 μM
  % control: 0.86%
  MTT assay reading, Average: 1.4779
  MTT assay reading, individual replicate: 1.531 and 1.338 and 1.635 and 1.354 and 1.477 and 1.476 and 1.534
H460; H460, 0.1 μM
  % control: 0.88%
  MTT assay reading, Average: 1.5079
  MTT assay reading, individual replicate: 1.473 and 1.427 and 1.518 and 1.504 and 1.524 and 1.575 and 1.534
H460; H460, 0.5 μM
  % control: 0.78%
  MTT assay reading, Average: 1.3309
  MTT assay reading, individual replicate: 1.297 and 1.323 and 1.388 and 1.304 and 1.362 and 1.335 and 1.307
H460; H460, 1 μM
  % control: 0.64%
  MTT assay reading, Average: 1.1053
  MTT assay reading, individual replicate: 1.191 and 1.216 and 1.047 and 1.094 and 0.946 and 1.108 and 1.135
H358; H358, 0.01 μM
  MTT assay reading, Average: 0.7673
  MTT assay reading, individual replicate: 0.79 and 0.678 and 0.647 and 0.812 and 0.791 and 0.864 and 0.789
H358; H358, 0.1 μM
  MTT assay reading, Average: 0.769
  MTT assay reading, individual replicate: 0.726 and 0.676 and 0.824 and 0.846 and 0.782 and 0.658 and 0.871
H358; H358, 0.5 μM
  MTT assay reading, Average: 0.719
  MTT assay reading, individual replicate: 0.684 and 0.6 and 0.66 and 0.739 and 0.819 and 0.753 and 0.778
H358; H358, 1 μM
  MTT assay reading, Average: 0.6534
  MTT assay reading, individual replicate: 0.691 and 0.548 and 0.643 and 0.706 and 0.647 and 0.656 and 0.683
A549; A549, 0.01 μM
  MTT assay reading, Average: 1.2597
  MTT assay reading, individual replicate: 1.182 and 1.147 and 1.307 and 1.208 and 1.279 and 1.361 and 1.334
A549; A549, 0.1 μM
  MTT assay reading, Average: 1.1816
  MTT assay reading, individual replicate: 1.073 and 1.17 and 1.208 and 1.308 and 1.211 and 1.152 and 1.149
A549; A549, 0.5 μM
  MTT assay reading, Average: 1.0421
  MTT assay reading, individual replicate: 1.107 and 1.032 and 0.931 and 0.964 and 1.036 and 1.104 and 1.121
A549; A549, 1 μM
  MTT assay reading, Average: 0.9223
  MTT assay reading, individual replicate: 0.97 and 0.971 and 1.014 and 0.89 and 0.862 and 0.886 and 0.863
H322; H322, 0.01 μM
  MTT assay reading, Average: 1.0041
  MTT assay reading, individual replicate: 0.921 and 1.08 and 1.05 and 1.022 and 0.888 and 0.926 and 1.142
H322; H322, 0.1 μM
  MTT assay reading, Average: 1.0019
  MTT assay reading, individual replicate: 1.04 and 1.033 and 0.923 and 1.031 and 1.09 and 0.883 and 1.013
H322; H322, 0.5 μM
  MTT assay reading, Average: 0.866
  MTT assay reading, individual replicate: 0.837 and 0.8 and 0.975 and 0.926 and 0.806 and 0.811 and 0.907
H322; H322, 1 μM
  MTT assay reading, Average: 0.8379
  MTT assay reading, individual replicate: 0.841 and 0.799 and 0.822 and 0.932 and 0.793 and 0.709 and 0.969
